Among the test systems are NCI-H23 lung; MALME-3M melanoma; SR leukemia; LOX IMVI melanoma; IGROV1 ovarian; SK-MEL-28 melanoma; SF-268 CNS; OVCAR-4 ovarian; SNB-75 CNS; NCI-H522 lung.
Common to all, as to test: NCI anticancer screen, dose series, 48 h

Each structure is given as a SMILES string.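 The compound was tested at five concentrations on cells cultured in 96-well plates, with a 48-hour exposure period. Abbreviation: GI50, concentration required for 50% inhibition of growth. TGI: total growth inhibition.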

As to `COc1cccc(/C=C/c2cnc3ccccc3n2)c1OC`, the TGI in the assay with NCI-H23 lung, in the assay on MALME-3M melanoma, in the assay on SR leukemia, in the assay with LOX IMVI melanoma, in the assay with IGROV1 ovarian and in the assay with SK-MEL-28 melanoma was above 100 µM throughout. Further, the TGI with SF-268 CNS is above 100 µM; in the assay with OVCAR-4 ovarian, above 100 µM; in the assay with SNB-75 CNS it was 79.6 µM; in the assay with NCI-H522 lung, 53.5 µM.
With `Cc1ccc2c(c1)NC(=O)CC(c1ccccc1)=N2`, the TGI in the assay on NCI-H23 lung was above 100 µM; in the assay on MALME-3M melanoma, above 100 µM; in the assay with SR leukemia, 64.2 µM; in the assay with LOX IMVI melanoma, above 100 µM; with IGROV1 ovarian, above 100 µM; with SK-MEL-28 melanoma, above 100 µM. Besides, the TGI in the assay on SF-268 CNS, with OVCAR-4 ovarian, in the assay on SNB-75 CNS and with NCI-H522 lung was above 100 µM in each case.
As to `COC(=O)C1(F)C(=O)NC(=O)NC1O` (stereo not given), the TGI in the assay on NCI-H23 lung, with MALME-3M melanoma, in the assay on SR leukemia, in the assay on LOX IMVI melanoma, in the assay on IGROV1 ovarian and in the assay on SK-MEL-28 melanoma was above 100 µM each time. Further, the TGI in the assay with SF-268 CNS, with OVCAR-4 ovarian, in the assay with SNB-75 CNS and in the assay with NCI-H522 lung was above 100 µM throughout.
Regarding `COc1ccc(/C=C/C(=O)Oc2cc(O)cc(O)c2)cc1`, the TGI in the assay with NCI-H23 lung is above 100 µM; with MALME-3M melanoma, above 100 µM; in the assay with SR leukemia, above 100 µM; in the assay with LOX IMVI melanoma it was 41.1 µM; in the assay with IGROV1 ovarian it was 76.1 µM; in the assay with SK-MEL-28 melanoma, above 100 µM. Also, the TGI in the assay on SF-268 CNS was 86.5 µM; in the assay on OVCAR-4 ovarian it was above 100 µM; in the assay with SNB-75 CNS, above 100 µM; in the assay on NCI-H522 lung, above 100 µM.
As to `COc1cc(/C=C2\CCC(CN(C)C)C2=O)ccc1OC(=O)c1ccccc1` (stereo not given), the TGI in the assay with NCI-H23 lung was 36.7 µM; in the assay on MALME-3M melanoma, 29.5 µM; in the assay on SR leukemia, 6.97 µM; in the assay on LOX IMVI melanoma, 13 µM; in the assay with IGROV1 ovarian, 27.9 µM; in the assay on SK-MEL-28 melanoma, 29.2 µM. The TGI in the assay with SF-268 CNS stood at 27.5 µM; in the assay with OVCAR-4 ovarian, 25.5 µM; in the assay on SNB-75 CNS, 35 µM; in the assay with NCI-H522 lung it was 10.4 µM.
With `O=C(Nc1ccc(Cl)cc1)c1cc(-c2ccc(Cl)cc2)c2sc(=O)[nH]c2n1`, the GI50 was 1.24 µM in the assay on NCI-H23 lung; 2.31 µM in the assay on MALME-3M melanoma; 3.63 µM in the assay on SR leukemia; 2.88 µM with LOX IMVI melanoma; 2.83 µM in the assay on IGROV1 ovarian; 1.57 µM in the assay on SK-MEL-28 melanoma. Also, the GI50 is 2.56 µM in the assay with SF-268 CNS, 2.02 µM in the assay on OVCAR-4 ovarian, 1.7 µM in the assay with SNB-75 CNS and 0.408 µM with NCI-H522 lung. In addition, the TGI is 6.85 µM in the assay with NCI-H23 lung; 6.25 µM in the assay on MALME-3M melanoma; above 100 µM with SR leukemia; 10.6 µM in the assay with LOX IMVI melanoma; 28.9 µM in the assay with IGROV1 ovarian; 17.8 µM with SK-MEL-28 melanoma. Also, the TGI came to 22.3 µM with SF-268 CNS, 9.98 µM in the assay with OVCAR-4 ovarian, 8.03 µM with SNB-75 CNS and 3.12 µM with NCI-H522 lung.
With `Cn1cc(-c2cnc3ccc4ccc(CS(=O)(=O)NCc5ccccn5)cc4c(=O)c3c2)cn1`, the GI50 with NCI-H23 lung was 16.2 µM; in the assay on MALME-3M melanoma, 21.3 µM; in the assay on SR leukemia it was 3.17 µM; in the assay with LOX IMVI melanoma it was 13.5 µM; with IGROV1 ovarian, 22.1 µM; in the assay on SK-MEL-28 melanoma it was 15 µM. For the same molecule, the GI50 in the assay on SF-268 CNS is 20.9 µM; with OVCAR-4 ovarian, 10.3 µM; with SNB-75 CNS it was 6.45 µM; in the assay with NCI-H522 lung, 22 µM. The TGI in the assay on NCI-H23 lung was above 84.7 µM; in the assay on MALME-3M melanoma it was 73.1 µM; in the assay on SR leukemia it was above 100 µM; in the assay with LOX IMVI melanoma, 35.3 µM; in the assay with IGROV1 ovarian it was above 100 µM; in the assay with SK-MEL-28 melanoma it was 35.4 µM. The TGI in the assay on SF-268 CNS was above 100 µM; with OVCAR-4 ovarian it was 68.1 µM; with SNB-75 CNS, 47.8 µM; with NCI-H522 lung, above 95.9 µM.
Take `CCN(CCCl)CCCNc1c2ccccc2nc2ccc(OC)cc12`: the GI50 is 382 µM in the assay on NCI-H23 lung; 754 µM in the assay with MALME-3M melanoma; 665 µM in the assay with SK-MEL-28 melanoma; 254 µM in the assay with SF-268 CNS; 360 µM in the assay with OVCAR-4 ovarian; 532 µM with SNB-75 CNS. Also, in the assay on NCI-H522 lung, the GI50 was 103 µM. The TGI in the assay on SR leukemia is 1.04 µM; in the assay with LOX IMVI melanoma, 0.669 µM; in the assay on IGROV1 ovarian, 1510 µM.
On to `NC1=NC(c2ccc(Cl)cc2)C2=C(N1)/C(=C/c1ccc(Cl)cc1)CCC2` (stereo not given), for which the GI50 with NCI-H23 lung was 5.98 µM; with MALME-3M melanoma, 19.4 µM; in the assay on SR leukemia it was 3.69 µM; in the assay on LOX IMVI melanoma it was 1.85 µM; in the assay on IGROV1 ovarian it was 15 µM; in the assay on SK-MEL-28 melanoma, 17 µM. In addition, the GI50 with SF-268 CNS was 7.35 µM; with OVCAR-4 ovarian, 13.9 µM; with SNB-75 CNS, 16.4 µM; with NCI-H522 lung it was 15.7 µM. In addition, the TGI in the assay on NCI-H23 lung was 26.7 µM; in the assay with MALME-3M melanoma it was 50.8 µM; in the assay with SR leukemia it was 9.84 µM; in the assay with LOX IMVI melanoma it was 3.64 µM; with IGROV1 ovarian it was above 64.4 µM; with SK-MEL-28 melanoma, 45.4 µM. The TGI is above 38.9 µM with SF-268 CNS, 76.5 µM in the assay on OVCAR-4 ovarian, 59.3 µM in the assay on SNB-75 CNS and 36.9 µM in the assay with NCI-H522 lung.
Consider `N#CC1=C(N)NC(=O)NC12Nc1ccccc1S2` (stereo not given), for which the GI50 in the assay with NCI-H23 lung was 19.3 µM; with MALME-3M melanoma, 4.63 µM; in the assay with SR leukemia, 10.4 µM; with LOX IMVI melanoma, 22.9 µM; in the assay on IGROV1 ovarian, above 45.7 µM; with SK-MEL-28 melanoma it was 26.7 µM. Besides, the GI50 was 23.6 µM with SF-268 CNS, 43.4 µM in the assay with OVCAR-4 ovarian, 51 µM in the assay with SNB-75 CNS and 28.2 µM in the assay with NCI-H522 lung. The TGI in the assay with NCI-H23 lung was 47.7 µM; in the assay with MALME-3M melanoma, 42.5 µM; in the assay on SR leukemia, above 100 µM; with LOX IMVI melanoma, above 59.2 µM; in the assay on IGROV1 ovarian it was above 74.8 µM; in the assay with SK-MEL-28 melanoma it was above 70.3 µM. In addition, the TGI was 70.8 µM with SF-268 CNS, above 100 µM in the assay with OVCAR-4 ovarian, above 100 µM in the assay with SNB-75 CNS and above 71.4 µM in the assay with NCI-H522 lung.
